Data as given in patent publication US20240182862A1, “METHOD FOR PRODUCING MESENCHYMAL STEM CELLS” (AJINOMOTO CO., INC., priority 2021, published 2024).

Experiments:
[1] = system: iNCC (iPS cell-derived neural crest cell); test: Differentiation induction from iNCC into iMSC, surface antigen analysis using FACS; assay type: cell-based, human
Description: The obtained iNCCs (iPSC-derived NCCs) were seeded at a density of 5.0×10^3 cells/well into a 6-well plate coated with vitronectin-N (Thermo Fisher Scientific) at a density of 1.5 μg/cm^2 and cultured under 37° C., 5% CO2 conditions for […] using the following differentiation medium (T3 medium) to induce iMSCs (iPSC-derived MSCs).
T3 medium: StemFit (registered trademark) For Mesenchymal Stem Cells (Ajinomoto Co., Inc.), 90 nM Dexamethasone (Sigma-Aldrich) […]
iMSC was induced according to Example 1, except that 100 nM Dexamethasone, 100 nM betamethasone, 100 nM predonisolone, 666 nM predonisolone were used.
Regarding the induced iMSC, surface antigen analysis of 4 types of MSC positive markers (CD90, CD44, CD73, CD105), 1 type of NCC positive marker (MSC micro-positive marker) (CD271), and two types of MSC negative markers (CD45 and CD34) was performed using FACS.

TSG-6 (TNFAIP6) = test: Gene expression of TSG-6 (TNFAIP6) after IFNγ stimulation, Real-Time PCR; assay type: cell-based, human; details: iMSC induced by adding 50 nM to 10 μM Dexamethasone, 18 days; 50 ng/mL IFNγ for 48 hr; FIG. 3
Description: iNCCs were seeded at a density of 5.0×10^3 cells/well into a 6-well plate coated with vitronectin-N at a density of 1.5 μg/cm^2, and cultured under 37° C., 5% CO2 conditions for 16 days using T3 medium to induce iMSCs.
After 16 days from the start of induction, 50 ng/mL IFNγ (R&D Systems) was added to T3 medium to stimulate for 48 hr. After stimulation, RNA was purified according to the protocol of PureLink (trademark) RNA Mini Kit (Thermo Fisher Scientific) and, after reverse transcription, gene expression of TSG-6 (TNFAIP6), a therapeutic marker for inflammatory diseases, was analyzed using Real-Time PCR. As comparison targets, iNCC-derived iMSC induced to differentiate in αMEM medium containing 10% FBS, and two lots of living bone marrow-derived MSC (BMMSC) (Lonza or RoosterBio) cultured in T3 medium for 12 to 16 days were used (Table 2).
iNCCs were seeded at a density of 3.0×10^4 cells/well into a 6-well plate coated with vitronectin-N at a density of 1.5 μg/cm^2, and cultured under 37° C., 5% CO2 conditions using StemFit (registered trademark) For Mesenchymal Stem Cells supplemented with 50 nM, 100 nM, 1 μM, 10 μM, 50 μM Dexamethasone to induce iMSCs. […] After stimulation, RNA was purified and, after reverse transcription, gene expression of TNFAIP6 was analyzed using Real-Time PCR.

iNCC = test: Cell proliferation curve during differentiation induction; assay type: cell-based, human; details: group added with 50 μM; FIG. 2
[2] = Titer of corticosteroid as glucocorticoid; details: titer as glucocorticoid taken for the converted concentrations of the Examples
[3] = when hydrocortisone is set to 1; cited from earlier work
[4] = system: LX-2 Human Hepatic Stellate Cell Line; test: Antifibrotic action of secretome: RT-PCR of fibrosis marker genes COL1A1 and ACTA2 in LX-2 cells; assay type: cell-based; details: effect of TGF-β1 stimulation itself (10 ng/mL)
Description: LX-2 Human Hepatic Stellate Cell Line (EDM Millipore, hereinafter LX-2 cells) was cultured in a DMEM high Glucose (Life Technologies) medium supplemented with 10% FBS (Gibco), 1% penicillin-streptomycin (Nacalai), and 2 mM Glutamine (Gibco). On the fourth passage, 4×10^4 cells were seeded into each well of a 12-well plate. After 2 days of culture, the medium was replaced with a medium in which concentrated secretome obtained from iMSC was added at a concentration of 1× to a medium supplemented with 10 ng/mL TGF-β1 (Peprotech), and the culture was continued. On the second day after replacing the medium, cells were detached with Accutase (Thermo Fisher), and after collection, RNA was extracted and purified using Maxwell (registered trademark) 16 LEV simplyRNA Purification Kits (Promega), and reverse transcription was performed using PrimeScript™ RT Master Mix (Takara). RT-PCR was performed on the synthesized cDNA using the primers of TaqMan (registered trademark) Gene Expression Assays shown in Table 5.

[5] = StemFit For MSC + 100 nM corticosteroid
[6] = StemFit For MSC + 666 nM corticosteroid

Molecule	CD34 (MSC negative marker) FACS [1, 5]	CD44 (MSC positive marker) FACS [1, 5]	CD45 (MSC negative marker) FACS [1, 5]	CD73 (MSC positive marker) FACS [1, 5]	CD90 (MSC positive marker) FACS [1, 5]	CD105 (MSC positive marker) FACS [1, 5]	CD271 (NCC positive, MSC micro-positive marker) FACS [1, 5]	titer of corticosteroid as glucocorticoid [3]	other results
C[C@H]1C[C@H]2[C@@H]3CCC4=CC(=O)C=C[C@]4(C)[C@@]3(F)[C@@H](O)C[C@]2(C)[C@@]1(O)C(=O)CO [Betamethasone]	8.12%	99.60%	0.88%	97.86%	98.96%	95.34%	34.14%		
C[C@@H]1C[C@H]2[C@@H]3CCC4=CC(=O)C=C[C@]4(C)[C@@]3(F)[C@@H](O)C[C@]2(C)[C@@]1(O)C(=O)CO [Dexamethasone, Pregna-1,4-diene-3,20-dione,9-fluoro-11,17,21-trihydroxy-16-methyl-, (11β,16α)-]	10.52%	99.26%	0.64%	97.82%	99.22%	96.36%	23.42%		gene expression of TSG-6 by IFNγ stimulation (TSG-6 (TNFAIP6)): significantly increased; proliferation of cells during differentiation induction (iNCC): stopped after day 13; titer used to convert concentrations [2]: 26.66
C[C@]12C=CC(=O)C=C1CC[C@@H]1[C@@H]2[C@@H](O)C[C@@]2(C)[C@H]1CC[C@]2(O)C(=O)CO [Prednisolone]	9.22%	99.60%	0.56%	96.38%	98.99%	93.32%	56.94%	4	titer used to convert concentrations [2]: 4; effect in promoting differentiation ([1]; 666 nM, titer as glycocorticoid aligned): effective in promoting differentiation; CD34 (MSC negative marker) FACS [1, 6]: 9.86%; CD44 (MSC positive marker) FACS [1, 6]: 99.70%; CD45 (MSC negative marker) FACS [1, 6]: 0.88%; CD73 (MSC positive marker) FACS [1, 6]: 97.38%; CD90 (MSC positive marker) FACS [1, 6]: 99.18%; CD105 (MSC positive marker) FACS [1, 6]: 95.28%; CD271 (NCC positive, MSC micro-positive marker) FACS [1, 6]: 41.02%; effect in promoting differentiation ([1]; added at 100 nM): limited effect
C[C@]12CCC(=O)C=C1CC[C@@H]1[C@@H]2C(=O)C[C@@]2(C)[C@H]1CC[C@]2(O)C(=O)CO [cortisone]								0.8	
C[C@@H]1C[C@H]2[C@@H]3C[C@H](F)C4=CC(=O)C=C[C@]4(C)[C@H]3[C@@H](O)C[C@]2(C)[C@@]1(O)C(=O)CO [paramethasone]								10	
C[C@]12C=CC(=O)C=C1CC[C@H]1[C@@H]3C[C@@H](O)[C@](O)(C(=O)CO)[C@@]3(C)C[C@H](O)[C@@]12F [triamcinolone]								5	
TGF-β1: TGF-β1 (Peprotech), 10 ng/mL stimulus of LX-2 cells									ACTA2 expression [4]: markedly increased; COL1A1 expression [4]: markedly increased
